Laboratory results taken from patent US11564923B2, “Compounds and pharmaceutical compositions thereof for the treatment of inflammatory disorders” (Galapagos NV, priority 2017, dated 2023).
Where a name gives a salt, the structure may show the parent alone.

Key:
[1] = target: T1, Recombinant human JAK1 (catalytic domain, amino acids 866-1154) (Homo sapiens, UniProt P23458); assay: JAK1 inhibition assay; assay type: biochemical; details: read-out: JAK1 potency IC50
T1 construct: catalytic domain, amino acids 866-1154
Description: (§1) After 60 min at room temperature, reactions are stopped by adding 20 μL/well of detection mixture (1× detection buffer (Perkin Elmer, catalog number CR97-100), 0.5 nM Europium-anti-phosphotyrosine (PT66) (Perkin Elmer, catalog number AD0068/AD0069), 10 mM EDTA). […] Kinase activity is calculated by subtracting the ratio obtained in the presence of a positive control inhibitor (1 μM staurosporine) from the ratio obtained in the presence of vehicle. The ability of a test compound to inhibit this activity (or percentage inhibition) is determined as:
(§2) [formula] wherein Fluorescent ratio test compound=ratio RFU665/RFU615*1000 determined for sample with test compound present Fluorescent ratio control=ratio RFU665/RFU615*1000 determined for sample with positive control inhibitor Fluorescent ratio vehicle=ratio RFU665/RFU615*1000 determined in the presence of vehicle
(§3) Dose dilution series were prepared for the compounds enabling the testing of dose-response effects in the JAK1 assay and the calculation of the IC50 for the compound. Each compound is routinely tested at concentration of 20 μM followed by a 1/5 serial dilution, 10 points in a final concentration of 1% DMSO. […] The data are expressed as the average IC50 from the assays.

[2] = target: T2, Recombinant human JAK2 (catalytic domain, amino acids 808-1132) (Homo sapiens, UniProt O60674); assay: JAK2 inhibition assay; assay type: biochemical; details: read-out: JAK2 potency IC50; note: 0.7 µM ATP
T2 construct: catalytic domain, amino acids 808-1132
Description: as §1, with “CR97-100) with” for “CR97-100),”, “AD0068/AD0069) and” for “AD0068/AD0069),”
as §2
as §3, with “are” for “were”, “compound” for “the compounds”, “JAK2” for “JAK1”

[3] = target: Recombinant human JAK3 catalytic domain (amino acids 781-1124) (Homo sapiens, UniProt P52333); assay: JAK3 inhibition assay; assay type: biochemical
Description: After 45 min at 30° C., reactions are stopped by adding 25 μL/well of 150 mM phosphoric acid. […] Plates are washed 6 times with 300 μL per well of a 75 mM phosphoric acid solution and the bottom of the plates is sealed. […] Kinase activity is calculated by subtracting counts per min (cpm) obtained in the presence of a positive control inhibitor (10 μM staurosporine) from cpm obtained in the presence of vehicle. The ability of a test compound to inhibit this activity (or percentage inhibition) is determined as: […]
cpm test compound=cpm determined for sample with test compound present cpm control=cpm determined for sample with positive control inhibitor cpm vehicle=cpm determined in the presence of vehicle
Dose dilution series were prepared for the compounds enabling the testing of dose-response effects in the JAK3 assay and the calculation of the IC50 for each compound. Each compound is routinely tested at concentration of 20 μM followed by a 1/5 serial dilution, 10 points in a final concentration of 1% DMSO.

[4] = target: T3, Recombinant human TYK2 catalytic domain (amino acids 871-1187) (Homo sapiens, UniProt P29597); assay: TYK2 radioactive assay polyGT substrate; assay type: biochemical; note: 0.1 µM ATP
T3 construct: catalytic domain (amino acids 871-1187)
T3 sequence (P29597 871-1187): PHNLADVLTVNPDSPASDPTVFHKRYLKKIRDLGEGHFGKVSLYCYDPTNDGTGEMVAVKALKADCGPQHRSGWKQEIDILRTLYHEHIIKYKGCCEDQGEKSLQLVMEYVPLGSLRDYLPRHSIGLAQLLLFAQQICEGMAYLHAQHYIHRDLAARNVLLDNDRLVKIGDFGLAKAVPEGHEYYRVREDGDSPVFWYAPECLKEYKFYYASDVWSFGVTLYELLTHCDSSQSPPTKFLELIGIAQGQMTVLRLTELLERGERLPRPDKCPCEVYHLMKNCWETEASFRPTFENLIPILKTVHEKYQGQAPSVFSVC
Method in brief: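 Reaction at 30° C. for 120 min, ended with 150 mM phosphoric acid, washed, counted; percent inhibition scaled between vehicle and 10 μM staurosporine cpm.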

[5] = test system: IFNα activation of STAT1 in PBMC; assay: IFNα activation of STAT1 in PBMC; assay type: cell-based; details: Homo sapiens; IFNα activation of STAT1 in PBMC; average IC50; read-out: IFNα signaling inhibitory potency IC50
Method in brief: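 Human PBMC, with red cells lysed by NH4Cl, were pre-treated with compound for 30 min at 37 °C and 5% CO2. They were then stimulated for 30 min with recombinant human IFNα at 5 ng/mL final.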

[6] = test system: IL-12 activation of STAT4 in NK-92 cells; assay: IL-12 activation of STAT4 in NK-92 cells using AphaLISA SureFire technology; assay type: cell-based; details: Homo sapiens, NK92; IL-12 activation of STAT4 in NK-92 cells, AlphaLISA SureFire; average IC50; read-out: IL12 pSTAT4 IC50
Method in brief: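 NK-92 cells, starved of rhIL-2 overnight, were stimulated with rhIL-12 for 30 min at 37 °C with test compounds, then lysed. Phospho-STAT4 (Tyr693) was read by AlphaLISA SureFire. Percent inhibition versus the vehicle-plus-trigger signal was fitted by sigmoidal nonlinear regression to give IC50, averaged over experiments.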

T2 sequence (O60674 808-1132): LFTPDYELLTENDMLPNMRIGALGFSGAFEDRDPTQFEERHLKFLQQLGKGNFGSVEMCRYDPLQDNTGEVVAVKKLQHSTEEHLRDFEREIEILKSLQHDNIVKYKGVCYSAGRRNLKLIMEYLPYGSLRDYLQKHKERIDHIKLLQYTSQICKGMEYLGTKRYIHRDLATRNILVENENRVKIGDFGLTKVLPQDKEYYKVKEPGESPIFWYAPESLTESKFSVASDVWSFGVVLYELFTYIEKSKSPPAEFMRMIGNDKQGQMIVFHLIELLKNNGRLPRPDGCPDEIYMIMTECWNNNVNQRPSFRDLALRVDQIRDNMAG
T1 sequence (P23458 866-1154): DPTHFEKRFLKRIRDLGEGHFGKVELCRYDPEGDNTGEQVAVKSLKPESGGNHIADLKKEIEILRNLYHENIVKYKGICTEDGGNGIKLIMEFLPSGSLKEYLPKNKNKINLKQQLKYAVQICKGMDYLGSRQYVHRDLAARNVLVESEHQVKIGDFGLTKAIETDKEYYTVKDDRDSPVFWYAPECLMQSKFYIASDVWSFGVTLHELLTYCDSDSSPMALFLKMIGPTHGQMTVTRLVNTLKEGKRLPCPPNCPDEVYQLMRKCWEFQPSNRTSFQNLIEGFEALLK
Chain of Recombinant human JAK3 catalytic domain (amino acids 781-1124) (P52333 781-1124): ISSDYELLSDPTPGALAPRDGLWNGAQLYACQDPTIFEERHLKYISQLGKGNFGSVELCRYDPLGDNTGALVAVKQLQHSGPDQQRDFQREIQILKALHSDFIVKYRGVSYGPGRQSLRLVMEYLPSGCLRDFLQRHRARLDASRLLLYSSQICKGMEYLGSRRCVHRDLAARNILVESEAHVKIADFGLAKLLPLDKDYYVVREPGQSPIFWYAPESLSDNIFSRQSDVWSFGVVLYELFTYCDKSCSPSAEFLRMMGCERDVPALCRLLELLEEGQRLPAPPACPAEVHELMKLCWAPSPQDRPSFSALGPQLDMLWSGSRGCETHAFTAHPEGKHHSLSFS

| SMILES | IC50 [1] [nM] | IC50 [2] [nM] | IC50 [3] [nM] | IC50 [4] [nM] | IC50 [6] [nM] | IC50 [5] [nM] |
| --- | --- | --- | --- | --- | --- | --- |
| Cc1cc(C#N)nnc1Oc1cc(Nc2cc(N)ncn2)c2ncn(C)c2n1 [Compound 3, 6-[7-(6-Amino-pyrimidin-4-ylamino)-3-methyl-3H-imidazo[4,5-b]pyridin-5-yloxy]-5-methyl-pyridazine-3-carbonitrile] | 110 | 78 | 2160 | 12.7 | 274 | 119 |
| COCCNc1cc(Nc2cc(Oc3cnc(C#N)cc3C)nc3c2ncn3C)ncn1 [Compound 31, 5-{7-[6-(2-Methoxy-ethylamino)-pyrimidin-4-ylamino]-3-methyl-3H-imidazo[4,5-b]pyridin-5-yloxy}-4-methyl-pyridine-2-carbonitrile] | 187 | 43.8 | 1050 | 8.01 | 110 | 94 |
| Cc1cc(C#N)ncc1Oc1cc(Nc2cc(NCCC(C)(C)O)ncn2)c2ncn(C)c2n1 [Compound 33, 5-{7-[6-(3-Hydroxy-3-methyl-butylamino)-pyrimidin-4-ylamino]-3-methyl-3H-imidazo[4,5-b]pyridin-5-yloxy}-4-methyl-pyridine-2-carbonitrile] | 67.6 | 23.1 | 503 | 2.93 | 129 | 72 |
| COC1CC(Nc2cc(Nc3cc(Oc4cnc(C#N)cc4C)nc4c3ncn4C)ncn2)C1 (stereo not drawn) [Compound 36, 5-{7-[6-(3-Methoxy-cyclobutylamino)-pyrimidin-4-ylamino]-3-methyl-3H-imidazo[4,5-b]pyridin-5-yloxy}-4-methyl-pyridine-2-carbonitrile] | 40.5 | 9.17 | 417 | 1.41 | 50 | 79 |
| COCCCS(=O)(=O)c1ccc(Nc2cc(Oc3cnc(C#N)cc3C)nc3c2ncn3C)cc1 [Compound 71, 5-[7-[4-(3-methoxypropylsulfonyl)anilino]-3-methyl-imidazo[4,5-b]pyridin-5-yl]oxy-4-methyl-pyridine-2-carbonitrile] | 103 | 86.2 | 1080 | 13.6 | 128 | 111 |
| Cc1cc(C#N)ncc1Oc1cc(Nc2ccc(CN(C)C)cn2)c2ncn(C)c2n1 [Compound 81, 5-[7-[[5-[(dimethylamino)methyl]pyridin-2-yl]amino]-3-methylimidazo[4,5-b]pyridin-5-yl]oxy-4-methylpyridine-2-carbonitrile formate salt] | 150 | 10.4 | 386 | 6.83 | 224 | 56 |
| COc1ccc(Nc2cc(Oc3cnc(C#N)cc3C)nc3c2ncn3C)nc1 [Compound 84, 5-[7-[(5-methoxypyridin-2-yl)amino]-3-methylimidazo[4,5-b]pyridin-5-yl]oxy-4-methylpyridine-2-carbonitrile] | 57.1 | 45.5 | 908 | 11 | 87 | 178 |
| Cc1cc(C#N)ncc1Oc1cc(Nc2ccc(OC3CCN(C)CC3)cn2)c2ncn(C)c2n1 [Compound 86, 4-methyl-5-[3-methyl-7-[[5-(1-methylpiperidin-4-yl)oxypyridin-2-yl]amino]imidazo[4,5-b]pyridin-5-yl]oxypyridine-2-carbonitrile] | 197 | 22.9 | 446 | 9.06 | 506 | 121 |

More lines, in order of falling IC50 [1], values ahead:

| IC50 [1] [nM] | IC50 [2] [nM] | IC50 [3] [nM] | IC50 [4] [nM] | IC50 [6] [nM] | SMILES | IC50 [5] [nM] |
| --- | --- | --- | --- | --- | --- | --- |
| 92.3 | 16.4 | 784 | 4.37 | 198 | COCCCN(c1cc(Nc2cc(N)ncn2)c2ncn(C)c2n1)c1cnc(C#N)cc1C [Compound 4, 5-[[7-(6-Amino-pyrimidin-4-ylamino)-3-methyl-3H-imidazo[4,5-b]pyridin-5-yl]-(3-methoxy-propyl)-amino]-4-methyl-pyridine-2-carbonitrile] | 91 |
| 69.4 | 12.4 | 69.7 | 7.84 | 80 | CC(C)C(Nc1cc(Nc2ccc(S(C)(=O)=O)cn2)c2ncn(C)c2n1)C(F)(F)F (stereo not drawn) [Compound 65, 3-methyl-N7-(5-methylsulfonyl-2-pyridiyl)-N5-[2-methyl-1-(trifluoromethyl)propyl]imidazo[4,5-b]pyridine-5,7-diamine] | 96 |
| 60.3 | 58.4 | 1110 | 10.3 | 221 | Cc1cc(C#N)ncc1Oc1cc(Nc2cnn(C)c2)c2ncn(C)c2n1 [Compound 61, 4-methyl-5-[3-methyl-7-[(1-methylpyrazol-4-yl)amino]imidazo[4,5-b]pyridin-5-yl]oxy-pyridine-2-carbonitrile] | 112 |
| 30.4 | 10.5 | 479 | 4.81 | 154 | Cc1cc(C#N)ncc1Oc1cc(Nc2ccc(N3CCOC[C@@H]3C)cn2)c2ncn(C)c2n1 [Compound 85, 4-methyl-5-[3-methyl-7-[[5-[(3S)-3-methylmorpholin-4-yl]pyridin-2-yl]amino]imidazo[4,5-b]pyridin-5-yl]oxypyridine-2-carbonitrile] | 115 |
| 23 | 3.35 | 97.9 | 3.07 | 22 | Cn1cnc2c(Nc3ccc(S(C)(=O)=O)cn3)cc(OC(C3CC3)C(F)(F)F)nc21 (stereo not drawn) [Compound 22, 5-(1-cyclopropyl-2,2,2-trifluoro-ethoxy)-3-methyl-N-(5-methylsulfonyl-2-pyridyl)imidazo[4,5-b]pyridin-7-amine] | 50 |
| 19.9 | 5.2 | 392 | 2.22 | 83 | CCNC(c1ccc(Nc2cc(Oc3cnc(C#N)cc3C)nc3c2ncn3C)nc1)C(F)(F)F (stereo not drawn) [Compound 80, 5-[7-[[5-[1-(ethylamino)-2,2,2-trifluoroethyl]pyridin-2-yl]amino]-3-methylimidazo[4,5-b]pyridin-5-yl]oxy-4-methylpyridine-2-carbonitrile] | 93 |
